Data: patent US8580749B2, “Peptide-coated cell localization to diseased or damaged tissues and methods related thereto” (Cell Targeting, Inc., priority 2009, dated 2013)
No end group written: not given here. *: point of attachment. Palmitoyl = CCCCCCCCCCCCCCCC(=O)*

Columns and labels:
[1] = tested on: heart; assay: Phage screen of 12 phage in mice with myocardial infarction; format: in vivo; details: for preferential localization of phage-displayed peptide in the heart: mice 1, 3 and 7 days after MI, phage circulated 10 minutes; for time point preference of heart localization after infarct: 1, 3 and 7 days post-MI
Description: A limited phage screen of 12 phage was performed in a study against mice with myocardial infarction (MI) lasting 1, 3 and 7 days. This panel of phage was selected to include phage with a greater potential for injured tissue, a positive non-specific control and a negative control phage. All publications and references cited in FIG. 24 are incorporated by reference to the extent such incorporation is not contrary to the invention described therein. Nothing herein is to be construed as an admission that the invention is not entitled to antedate such disclosure by virtue of prior invention.
Amplified phage were mixed in a 1:1 ratio and 200 μl injected at 1×10^9 pfu/ml into animals 1, 3 and 7 days after myocardial ischemia was produced. Phage were allowed to circulate for 10 minutes before the animal was perfused through the left ventricle with warmed DMEM/BSA (1%, ˜10 ml) with the right ventricle cut. Tissues (heart, lung, liver, spleen, kidney) were then harvested and stored on ice in 1 ml of DMEM/BSA (1%) before homogenization (Omni International TH homogenizer). Four washes were performed using PBS/BSA (1%) with centrifugation at 2800 RCF (5 min, 4° C.) and resuspension in PBS/BSA (1%). After the final wash, homogenates were weighed then lysed with 100 μl Triton-X-100 (1% in PBS) on ice for 15 minutes; 900 ul of BLT5403 (OD 600) was then added and incubated for 10 minutes (r.t.). This solution was then serially diluted in LB+CarbenicilHn and 240 ul aliquots taken into 1.2 ml BLT5403 and 600 μl plated on 10 cm agar plates with 4 ml top agar. Following overnight incubation, plaques were counted and the pfu/g tissue homogenate was calculated. Plaques were picked into 30 μl of PBS, 1 μl of this solution was transferred into 14 μl PCR mix (GoTaq Green Master Mix 7.5 μl, 1.5 μl 5 μM T7down (AACCCCTCAAGACCCGTTTA (SEQ ID NO: 13)), 1.5 μl 5 μM T7 Superup (AGCGGACCAGATTATCGCTA (SEQ ID NO: 24)), 3.5 μl of DNAse free water). This mix was then subjected to polymerase chain reaction (PCR) (1 cycle of 5 min 94° C.; 35 cycles of 94° C. 30 s, 50° C. 30 s, 72° C. 1 min; 1 cycle 72° C. 1 min; hold at 4° C.). The PCR samples then underwent cleanup and sequencing.

[2] = tested on: ischemic hindlimb; assay: Fluorescent peptide homing studies, mouse hindlimb ischemia model; format: in vivo; details: for homing of peptide in the mouse ischemic hindlimb: cryosections, FIG. 16; for tissue to which the peptide homed: fluorescent peptide studies
Description: Four palmitated peptides were synthesized: SK(biotin)[…] […] Human mesenchymal stem cells (hMSCs) were transiently coated with the four palmitated peptides and fluorescently labeled with Vybrant dye. […] MSCs were grown in DMEM/FBS (10%) supplemented with FGF (5 ng/ml), then trypsinized, washed with DMEM and aliquoted at 1 million cells/vial and resuspended in Tyrodes. […] Cell solutions were then centrifuged (200 RCF, 5 min, r.t.), washed twice with cold Tyrodes, then incubated for 20 min with 20 μg/ml streptavidin-PE (S866 Invitrogen), washed with Tyrodes, fixed with formalin, and then assessed using flow cytometry and epifluorescent microscopy.
For animal experiments, MSCs were first incubated with Vybrant green (CDFA SE; Invitrogen) washed with Tyrodes, then coated with 50 μg/ml PA-peptides for 10 min at 37° C. with shaking. Following coating, cells were washed with Tyrodes twice and resuspended to give 5×10^6 cells/ml. Ischemia was produced in the left hind-limb through ligation and severing of the femoral artery in mice. Three days post ischemia, mice were injected with […] through the subclavian vein and cells allowed to circulate for two hours before sacrifice. Distribution of injected MSCs was monitored by whole-body (“Xenogen”) fluoroscopy. Animals were sacrificed and tissues (heart, lung, liver, spleen, kidney, left calf muscle, left femur muscle, right calf muscle and right femur muscle) were harvested and fluorescence histology was done on tissue cryosections.

[3] = tested on: ischemic hearts; assay: Uptake and localization of fluorescently labeled CRPPR in ischemic hearts; format: in vivo, mouse; details: 30 minutes, 6 hour and 24 hour ischemia
Description: Fluorescently labeled CRPPR (SEQ ID NO: 1) was also studied for uptake and localization in ischemic hearts (30 minutes, 6 hour and 24 hour ischemia). This fluorescently labeled peptide was injected through the subclavian vein and allowed to circulate for two hours before sacrifice. Tissues (heart, lung, liver, spleen and kidney) were harvested, placed in TISSUE-TEK® molds and frozen in OCT cryomounting medium. The tissues were stored on dry ice until being placed at −80° C. and 8-10 μn sections were made.
Sections of heart tissue through different regions of the heart were imaged using a fluorescent microscope and CCD camera. The images were then assessed for total fluorescence using ImageJ (Image Processing and Analysis in Java) (see FIG. 2).

[4] = tested on: heart tissue; assay: Homing of peptide-coated MSCs in mouse MI reperfusion model; format: in vivo, C57BL6 mice; details: for distribution of cells within heart tissue: coated MSCs, 1 hour circulation, day after 30 minute ischemia/reperfusion
Description: C57BL6 mice were operated on with a sterile surgical technique. Mice were anaesthetized and intubated. A longitudinal incision was made in the thorax and the heart elevated. The left anterior descending artery was identified, and a ligature suture was placed around the artery and tightened down over a piece of polyethylene tubing placed above the artery, as shown in FIG. 1. After 30 minutes the ligation was released, the chest closed and the mouse was allowed to recover. The following day the mouse was again anaesthetized and intubated, the thoracotomy re-opened and cells administered through the left ventricle (1×10^6 cells). Cells were allowed to circulate for 1 hour before blood was collected into EDTA tubes and the mouse sacrificed via exsanguination. Blood was collected just prior to exsanguination to provide samples for assay of Troponin I levels.
Sections were cryosectioned 8 microns thick, mounted in sequence onto slides and viewed for the fluorescent label of the cells.
Histology sections of cardiac tissues were examined for VYBRANT® (CDFA SE; Invitrogen) green-labeled cells to determine the cells' propensity to target or home to distinct regions of the tissues, especially those associated with the infarcted region. Outcomes were evaluated via quantitative fluorescent microscopy of infarcted and non-infarcted tissues. Area in millimeters squared were calculated from representative cross-sections and numbers of cells were counted on a series of sections taken through the heart.
Sections of heart tissue were also analyzed using fluorescent microscopy. Five slides containing six sections per slide were analyzed. On each section a count of the number of cells was made. The count was then normalized against the area of the centre section on that slide.
An enzyme-linked immunosorbent assay (ELISA) (Life Diagnostics, Inc., Cat. No. 2010-1-HSP) of cardiac troponin I was made on the plasma collected from each mouse according to the manufacturer's method. Briefly, 60 μl of plasma sample was diluted with 180 μl plasma diluent. Standards and samples (100 μl) were added to coated wells containing 100 μl of cardiac troponin I horse radish peroxidase conjugate. These were mixed on an orbital shaker at room temperature for 1 hour. This solution was removed and the wells were washed thoroughly; 100 μl of tetramethylbenzidine reagent was then added to each well. This was incubated on the orbital shaker at room temperature for 20 minutes, then stop solution was added (100 μl) and the absorbance read at 450 nm (Tecan Genios Pro).

[5] = tested on: human mesenchymal stem cells (MSCs); assay: MTT toxicity assay of PA-peptides; format: cell-based; details: 1 hour incubation
Description: Human mesenchymal stem cells (MSCs) were seeded on 96-well plates (5.8×10^3 cells/well; DMEM/FBS 10%) and allowed to grow/adhere for 2 days. Media was removed and PA-peptides were added (0-0.1 mg/ml) to the cells. Toxicity was assessed after 10 minute incubation and 1 hour incubation. Acute effects were assessed immediately following the 10 minute exposure, and longer-term effects were measured the next day after the 10 minute exposure and the 1 hour exposure. Toxicity was assessed using the MTT method. Briefly, 20 μl of MTT (5 mg/ml in PBS, sterile filtered, Corning 0.22 μm Polyethersulfone) was added to each well and the plate was then incubated for 4 hours at 37° C. Media containing MTT was then carefully removed and 100 μl of dimethyl sulfoxide (DMSO) was added to each well. Plates were incubated for a further 30 minutes at 37° C. to solubilize the purple formazan crystals, and absorbance was then measured using a plate reader (570 nm; Tekan Genios Pro).

[6] = tested on: human mesenchymal stem cells (MSCs)
Description: MSCs were grown in Dulbecco's Modified Eagle's Medium (DMEM) and fetal bovine serum (FBS) (10%) supplemented with fibroblast growth factor-2 (FGF-2) (5 ng/ml) for 1 week. They were then trypsinized, washed with DMEM, aliquoted at 1 million cells/vial and resuspended in Tyrodes' balanced salt solution. […] was later used throughout the coating procedure. […] Cell solutions were centrifuged (200 RCF, 5 min, r.t.), washed twice with cold Tyrodes solution, then incubated for 20 minutes with 20 μg/ml streptavidin-PE (S866 Invitrogen), washed with Tyrodes solution, fixed with formalin, and then assessed using flow cytometry and epifluorescent microscopy.

Substance	preferential localization of phage-displayed peptide in the heart [1]	distribution of cells within heart tissue [4]	tissue to which the peptide homed [2]	also measured
CARSKNKDC (Targeting Sequence 5)	some preferential localization in the heart	–	–	–
CGLIIQKNEC (Targeting Sequence 3) [Clot1, homing peptide]	–	–	–	homing of peptide in the mouse ischemic hindlimb [2]: homing
CREKA (Targeting Sequence 8)	some preferential localization in the heart	–	–	time point preference of heart localization after infarct [1]: three day time point
CRKDKC (cysteine pairing not given here; also: fluorescent label, position not given here)	some preferential localization	–	–	homing of peptide in the mouse ischemic hindlimb [2]: homing
CRPPR (not fully specified)	some preferential localization in the heart	–	–	ischemia time at which localization was most pronounced [3]: most pronounced after 24 hour ischemia; localization of fluorescent peptide in heart tissue ([3]; two hours circulation): localize in heart tissue; time point preference of heart localization after infarct [1]: some preference for the earlier time point after infarct
PA-CRKDKC (Palmitoyl-CRKDKC; cysteine pairing not given here) [palmitated peptide (cell paint)]	–	papillary fibers have a higher concentration of cells than the cardiac muscle	homed to ischemic muscle tissue	–
PA-CRPPR (Palmitoyl-CRPPR) [palmitated peptide (cell paint)]	–	some localization with vasculature	homed to cardiac tissue	–
PA-KSTRKS (Palmitoyl-KSTRKS) [palmitated peptide (cell paint)]	–	distributed cells with some localization in vessels	homed to ischemic skeletal muscle tissue	concentrations causing a decrease in mitochondrial activity [5]: ≥ 50 µg/mL
PA-SK(Biotin)NSCARSKNKDC [PA-BioCAR]	–	distributed throughout the cardiac muscle	homed to ischemic skeletal muscle tissue	correlation between heart damage (cardiac troponin I) and cell number ([4]; FIG. 14): more cells localizing in the heart after relatively larger damage; cell labeling by the peptide ([6]; FIGS. 4 and 5): labeled the cells efficiently; cell-associated fluorescence ([6]; PA-BioCAR 0 to 2 mg/ml, 10 minutes, 37° C., streptavidin-PE): increasing cell-associated fluorescence with increasing PA-BioCAR concentration
